Results taken from patent publication US11958821B2, “Phenethylamine compounds salts, polymorphic forms and methods of use thereof” (Terran Biosciences Inc., priority 2021, dated 2024).

What was measured:
[1] = tested on: participants diagnosed with at least moderate post-traumatic stress disorder (PTSD); experiment: Double-blind, randomized, placebo-controlled clinical trial of MDE-assisted psychotherapy in PTSD; format: in vivo, human; conditions: for Daytime sleepiness (ESS) / Clinician-rated functional impairment score (SDS) / Depression (HAM-D) / Change in CAPS-5 assessment: Study Conclusion; for Clinician-rated functional impairment score (SDS) / Depression (HAM-D) / Change in CAPS-5 assessment: vs placebo; for Change in CAPS-5 assessment: hydrochloride salt with psychotherapy; for Total dosage of drug to achieve significant mean reduction in CAPS-5: vs racemic MDE-treated subgroup
Protocol: A multicenter, randomized, double-blind, placebo-controlled trial is conducted to assess the efficacy and safety of MDE-assisted psychotherapy versus psychotherapy with placebo control in participants diagnosed with at least moderate post-traumatic stress disorder (PTSD).
This multicenter, randomized, double-blind, placebo-controlled trial is conducted at various sites in the United States with IRB approval from each study site. A flexible dose of MDE hydrochloride salt or placebo, followed by a supplemental half-dose unless contraindicated by patient's previous response or medical history, is also administered during the Treatment Period with psychotherapy in at least 3 blinded monthly Experimental Sessions. The Supplemental Dose extends the duration of drug effects on the participants during an Experimental Session. MDE test groups are further subdivided into specific groups receiving only racemic MDE hydrochloride salt, S-MDE hydrochloride salt, or R-MDE hydrochloride salt. An optional Risk Evaluation and Mitigation Strategy (REMS) Protocol may be implemented for the racemic MDE, R-MDE, and placebo-groups. The Treatment Period lasts for approximately 12 weeks. During the Treatment Period, each Experimental Session is followed by three Intervening Sessions of non-drug psychotherapy. Each Experimental Session involves an overnight stay. The Primary Outcome measure, the change in Clinician Administered PTSD Scale for DSM-5 (CAPS-5), is determined by a blinded Independent Rater (IR) pool multiple times throughout the study. The study consists of separate periods for each participant. Initially, prospective participants undergo a Screening Period involving an initial eligibility assessment, a medical history intake, informed consent, and enrollment of eligible participants. Next, a Preparation Period is undertaken for enrolled participants involving medication tapering and clinical baseline assessments to confirm each participant meets enrollment criteria. As part of the Preparation Period, a detailed assessment of co-morbidities to PTSD is recorded. Participants may remain on prescribed courses of selective serotonin reuptake inhibitor (SSRI) or serotonin and norepinephrine reuptake inhibitor (SNRI) treatment. Dosages and/or frequency of administration of a prescribed SSRI or SNRI may be adjusted to fit within study parameters. Participants may be required to taper a prescribed course of medication in order to maintain eligibility within the study. The Treatment Period consists of three monthly Experimental Sessions and associated Intervening Sessions of integrative behavioral psychotherapy. The Treatment Period lasts approximately 12 weeks. Following the Treatment Period is a Follow-up Period and Study Conclusion. During the Follow-up Period and Study Conclusion, participants complete 4 weeks with no study visits, followed by a Study Conclusion visit.
This study compares the effects of three blinded Experimental Sessions of psychotherapy in combination with flexible doses of MDE or placebo administered as described below. Non-drug preparatory and intervening psychotherapy sessions are also included. Patient's weight is determined for dosage calculation. Initial dose is 100 mg unless this will result in a dosage of less than 1.5 mg/kg of patient weight. Initial dose thereby adjusted upward in 25 mg increments to deliver the lowest dose possible of at least 1.5 mg/kg of patient weight. Initial dose for Experimental Session 2 and 3 is cumulative dose calculated by adding the initial dose plus REMS protocol dose used the previous Experimental Session for each patient.
Randomization occurs prior to the initiation of Experimental Session 1. Each participant is provided the next randomized number in a sequence by a blinded study monitor. Participants are then randomized, according to a computer-generated randomization schedule, 1:1:1:1 to racemic MDE, S-MDE, R-MDE, or placebo. […]

Male Sprague-Dawley rats = experiment: Rat elevated zero-maze study with racemic MDE, R-MDE, S-MDE and chlordiazepoxide; conditions: for Percentage of time spent in the open arms (% TO), significance vs placebo / Percentage of time spent in the open arms (% TO), trend: 2.5-30 mg/kg ip
Protocol: A reduction in the amount of activity on the open areas is considered to reflect an increase in anxiety. The ethologically-based behavior, stretched attend postures (SAP) from closed to open quadrants, is assessed as an index of anxiety. […] Animals
Male Sprague-Dawley 200-250 g (Envigo UK) rats were used. Animals were group-housed (5 per cage; cage size: 40×40×20 cm) in a temperature-controlled environment (22±2° C.), under a 12 h light-dark cycle (lights on: 08:00 hours) for one week prior to testing. Food and water were freely available. Number of animals per group=5.
The elevated 0-maze comprises a black Perspex annular platform (105 cm diameter, 10 cm width) elevated to 65 cm above ground level, divided equally into four quadrants. Two opposite quadrants are enclosed by clear red Perspex walls (27 cm high) on both the inner and outer edges of the platform, while the remaining two opposite quadrants are surrounded only by a Perspex “lip” (1 cm high) which serves as a tactile guide to animals on these open areas.
Subjects were weighed and tail marked before being injected. After a specified pretreatment time, subjects were placed in a closed quadrant and a 5-min test period were recorded on videotape for subsequent analysis. The maze was cleaned with 5% methanol/water solution and dried thoroughly between test sessions. Behavioural measures comprise percentage time spent on the open areas (% TO) and frequency of stretched attend postures (SAP) from closed to open quadrants. Animals are scored as being in the open area when all four paws were in an open quadrant and in the closed area only when all four paws have passed over the open-closed divide.
Thirty min later at T=0, rats were individually placed in a closed arm of the zero-maze and behavior was assessed by a “blind” observer using remote video monitoring over the subsequent 5 min. The animal was then removed and the maze carefully wiped with 5% methanol/water solution before the next test was begun.
Thirty min later at T=0, rats were individually placed in a closed arm of the zero-maze and behavior assessed by a “blind” observer using remote video monitoring over the subsequent 5 min. The animal was then removed and the maze carefully wiped with 5% methanol/water solution before the next test was begun.

[2] = Dynamic vapor sorption (DVS) analysis with post-DVS XRPD; format: physicochemical
Protocol: DVS analysis was carried out using a TA Instruments Q5000 Dynamic Vapor Sorption analyzer. The instrument was calibrated with standard weights and a sodium bromide standard for humidity. Approximately 5-25 mg of sample was loaded into a metal-coated quartz pan for analysis. The sample was analyzed at 25° C. with a maximum equilibration time of one hour in 10% relative humidity (RH) steps from 5 to 95% RH (adsorption cycle) and from 95 to 5% RH (desorption cycle). The movement from one step to the next occurred either after satisfying the equilibrium criterion of 0.01% weight change or, if the equilibrium criterion was not met, after one hour. The percent weight change values were calculated using Microsoft Excel®.

[3] = highest dose, ip, 30 min before 5-min test

CCNC(C)Cc1ccc2c(c1)OCO2 (racemic) [racemic MDE, N-ethyl-3,4-methylenedioxyamphetamine]
Daytime sleepiness (ESS) [1]: significant improvement in lessening daytime sleepiness
Clinician-rated functional impairment score (SDS) [1]: significant improvement in clinician-rated functional impairment score
Depression (HAM-D) [1]: significant improvement depression
Change in CAPS-5 assessment [1]: significant mean reduction in CAPS-5 assessment compared to the placebo group
Frequency of stretched attend postures (SAP) (Male Sprague-Dawley rats; 2.5 mg/kg ip): significant increase in SAPs
Frequency of stretched attend postures (SAP) (Male Sprague-Dawley rats; 5 mg/kg ip): did not show any difference from placebo
Frequency of stretched attend postures (SAP) (Male Sprague-Dawley rats; 10 mg/kg ip): dose dependent decrease in SAPs and a significant anxiolytic effect
Frequency of stretched attend postures (SAP) (Male Sprague-Dawley rats; 15 mg/kg ip): dose dependent decrease in SAPs and a significant anxiolytic effect
Frequency of stretched attend postures (SAP) (Male Sprague-Dawley rats; 30 mg/kg ip): dose dependent decrease in SAPs and a significant anxiolytic effect
Percentage of time spent in the open arms (% TO), significance vs placebo (Male Sprague-Dawley rats): did not show significant changes when compared to placebo
Percentage of time spent in the open arms (% TO), trend (Male Sprague-Dawley rats): trended towards reduced time in the open arms
Frequency of stretched attend postures (SAP) (Male Sprague-Dawley rats; [3]): decreased the frequency of SAPs as effectively as the benzodiazepine chlordiazepoxide

CCC(Cc1ccc2c(c1)OCO2)NC.O=C(O)/C=C\C(=O)O (stereo not drawn) [MBDB maleate Form 1]
Hygroscopicity by DVS ([2]; 25° C., 5 to 95% RH, listed as MBDB Maleate Form 1): slightly hygroscopic
DVS weight gain ([2]; at 95% RH): 0.6%
Post-DVS XRPD (form change) ([2]; solids after DVS analysis): no form change

CCN[C@H](C)Cc1ccc2c(c1)OCO2 [R-MDE, (R)—N-ethyl-3,4-methylenedioxyamphetamine]
Daytime sleepiness (ESS) [1]: significant improvement in lessening daytime sleepiness
Clinician-rated functional impairment score (SDS) [1]: significant improvement in clinician-rated functional impairment score
Depression (HAM-D) [1]: significant improvement depression
Change in CAPS-5 assessment [1]: significant mean reduction in CAPS-5 assessment compared to the placebo group
Total dosage of drug to achieve significant mean reduction in CAPS-5 [1]: lower total dosage of drug compared to the racemic MDE-treated subgroup
Frequency of stretched attend postures (SAP) (Male Sprague-Dawley rats; 2.5 mg/kg ip): increase in the number of SAPs at the 2.5 mg/kg dose which trended towards significance
Frequency of stretched attend postures (SAP) (Male Sprague-Dawley rats; 5 mg/kg ip): increase in SAPs at the 5 mg/kg dose range as well which trended toward significance
Frequency of stretched attend postures (SAP) (Male Sprague-Dawley rats; 10 mg/kg ip): not significantly different from placebo
Frequency of stretched attend postures (SAP) (Male Sprague-Dawley rats; 15 mg/kg ip): not significantly different from placebo
Frequency of stretched attend postures (SAP) (Male Sprague-Dawley rats; 30 mg/kg ip): significant reduction in SAPs
Percentage of time spent in the open arms (% TO), significance vs placebo (Male Sprague-Dawley rats): did not show significant changes when compared to placebo
Percentage of time spent in the open arms (% TO), trend (Male Sprague-Dawley rats): trended towards reduced time in the open arms
Frequency of stretched attend postures (SAP) (Male Sprague-Dawley rats; [3]): decreased the frequency of SAPs as effectively as the benzodiazepine chlordiazepoxide

CCN[C@@H](C)Cc1ccc2c(c1)OCO2 [S-MDE, (S)—N-ethyl-3,4-methylenedioxyamphetamine]
Daytime sleepiness (ESS) [1]: significant improvement in lessening daytime sleepiness
Clinician-rated functional impairment score (SDS) [1]: significant improvement in clinician-rated functional impairment score
Depression (HAM-D) [1]: significant improvement depression
Change in CAPS-5 assessment [1]: significant mean reduction in CAPS-5 assessment compared to the placebo group
Adverse anxiogenic incidents ([1]; vs placebo-treated controls): without a significant increase in adverse anxiogenic incidents
Total dosage of drug to achieve significant mean reduction in CAPS-5 [1]: lower total dosage of drug compared to the racemic MDE-treated subgroup
Frequency of stretched attend postures (SAP) (Male Sprague-Dawley rats; 5 mg/kg ip): significantly decreased the number of SAPs
Frequency of stretched attend postures (SAP) (Male Sprague-Dawley rats; 10 mg/kg ip): significantly decreased the number of SAPs
Frequency of stretched attend postures (SAP) (Male Sprague-Dawley rats; 15 mg/kg ip): significantly decreased the number of SAPs
Percentage of time spent in the open arms (% TO) (Male Sprague-Dawley rats; 15 mg/kg ip): large numerical increase in time in the open arms
Frequency of stretched attend postures (SAP) (Male Sprague-Dawley rats; 20 mg/kg ip): significantly decreased the number of SAPs
Percentage of time spent in the open arms (% TO), significance vs placebo (Male Sprague-Dawley rats): did not show significant changes when compared to placebo
Frequency of stretched attend postures (SAP) (Male Sprague-Dawley rats; any dose vs placebo): did not increase the number of SAPs beyond placebo at any dose
Frequency of stretched attend postures (SAP) (Male Sprague-Dawley rats; [3]): decreased the frequency of SAPs as effectively as the benzodiazepine chlordiazepoxide
